Data as given in patent US9079899B2, “Anti-staphylococcal celecoxib derivatives” (THE OHIO STATE UNIVERSITY, priority 2010, dated 2015).
≈ marks a conversion by molar mass, not a printed value. Where two headings read alike, the source gives them in different places.

Legend:
MRSA (SCCmec VT) = assay: MIC, broth microdilution; type: cell-based, methicillin-resistant Staphylococcus aureus
S. aureus (ATCC 29213) = assay: MIC, broth microdilution; type: cell-based
[1] = test system: S. epidermidis (ATCC 35984); assay: MIC, broth microdilution; type: cell-based; settings: for MIC S. epidermidis (ATCC 35984): CAMHB, 24 h, 37° C.; for MIC: S. epidermidis (ATCC 35984)
[2] = test system: HT-29 human colon adenocarcinoma cells; assay: Antiproliferative assay (MTT); type: cell-based; settings: 24-h exposure, 10% FBS-supplemented RPMI 1640, MTT; for IC50: Homo sapiens, HT-29
Method: As celecoxib has been reported to be cytotoxic to cancer cells, the growth inhibitory activities of celecoxib and selected derivatives were assessed in. HT-29 human colon adenocarcinoma cells after 24-h exposure in 10% FBS-supplemented RPMI 1640 medium.
Antiproliferative assay. The cytotoxicity of individual test agents in HT-29 human colon adenocarcinoma cells was evaluated by using the 3-(4,5-dimethylthiazol-2-yl)-2,5-diphenyltetrazolium (MTT) assay. Briefly, HT-29 cells were seeded into 96-well plates at 1×10^4 cells/well (with a minimum of 6 wells per test condition) in RPMI 1640 medium supplemented with 10% FBS and 10 μg/ml of gentamicin. After overnight incubation at 37° C. under 5% CO2, the medium from each well was removed and replenished with fresh aliquots of the same medium containing various concentrations of test agents dissolved in DMSO (final concentration, 0.1%). Control cells were treated with DMSO alone at a concentration equal to that in drug-treated cells. After 24 h of drug exposure, the medium was removed and replaced by 100 μl of 0.5 mg/ml MTT in 10% FBS-containing medium, and the cells were incubated in the CO2 incubator at 37° C. for 2 h. Subsequently, medium was removed from each well, and the reduced MTT dye was dissolved with 100 μl of DMSO per well. Absorbance at 570 nm was measured with a plate reader. The 50% inhibitory concentration (IC50) of each drug was determined from dose-response curves by using CalcuSyn software (Biosoft, Cambridge, United Kingdom).

MRSA (ATCC 33592) = assay: MIC, broth microdilution; type: cell-based, methicillin-resistant Staphylococcus aureus
S. aureus (ATCC 12598) = assay: MIC, broth microdilution; type: cell-based; settings: Staphylococcus aureus, ATCC12598
MRSA (ATCC 49476) = assay: MIC, broth microdilution; type: cell-based, methicillin-resistant Staphylococcus aureus; settings: Staphylococcus aureus
[3] = test system: S. epidermidis (ATCC 12228); assay: MIC, broth microdilution; type: cell-based; settings: Staphylococcus epidermidis, ATCC12228
[4] = Table XIII, S. aureus (SSCmecVT)
[5] = Staphylococcus aureus, ATCC29213, 24 h, CAMHB, 24 h, 37° C., read-out: MIC S. aureus (ATCC 29213)
[6] = Staphylococcus aureus, read-out: MIC MRSA (ATCC 33592)
[7] = Staphylococcus aureus, MRSA, read-out: MIC MRSA (SCCmec VT)

Compound	MIC S. aureus (ATCC 29213) (S. aureus (ATCC 29213); CAMHB, 24 h, 37° C.)	MIC S. epidermidis (ATCC 35984) [1]	IC50 HT-29 cells [2]	also measured
CC1(C)S[C@@H]2[C@H](NC(=O)[C@H](N)c3ccccc3)C(=O)N2[C@H]1C(=O)O [Ampicillin]	–	–	–	MIC (MRSA (SCCmec VT); [4]): > 64 µg/mL
O=C(N[C@H](CO)[C@H](O)c1ccc([N+](=O)[O-])cc1)C(Cl)Cl [Chloramphenicol, chloramphenicol, reference compound]	–	–	–	MIC (MRSA (SCCmec VT); [4]): > 64 µg/mL
CCCCc1ccc(-c2cc(C(F)(F)F)nn2-c2ccc(C(N)=O)cc2)cc1 [Compound 10]	did not exhibit appreciable activity at 64 μg/ml or improved activity relative to celecoxib	did not exhibit appreciable activity at 64 μg/ml or improved activity relative to celecoxib	–	–
NS(=O)(=O)c1ccc(-n2nc(C(F)(F)F)cc2-c2ccc(-c3ccc(Cl)cc3)cc2)cc1 [Compound 11]	4 µg/mL (≈ 8.37 µM)	8 µg/mL (≈ 16.7 µM)	12.5 µg/mL (≈ 26.2 µM)	–
FC(F)(F)c1cc(-c2ccc3c(ccc4ccccc43)c2)n(-c2ccccc2)n1 [Compound 21]	did not exhibit appreciable activity at 64 μg/ml or improved activity relative to celecoxib	did not exhibit appreciable activity at 64 μg/ml or improved activity relative to celecoxib	–	–
NCC(=O)Nc1ccc(-n2nc(C(F)(F)F)cc2-c2ccc(-c3ccc(C(F)(F)F)cc3)cc2)cc1 [Compound 22]	did not exhibit appreciable activity at 64 μg/ml or improved activity relative to celecoxib	did not exhibit appreciable activity at 64 μg/ml or improved activity relative to celecoxib	–	–
NCC(=O)Nc1ccc(-n2nc(C(F)(F)F)cc2-c2ccc3c(ccc4ccccc43)c2)cc1 [Compound 23]	4 µg/mL (≈ 8.69 µM)	4 µg/mL (≈ 8.69 µM)	3.6 µg/mL (≈ 7.82 µM)	–
NCC(=O)Nc1ccc(-n2nc(C(F)(F)F)cc2-c2ccc3c(c2)Nc2ccccc2S3)cc1 [Compound 24]	4 µg/mL (≈ 8.31 µM)	4 µg/mL (≈ 8.31 µM)	6.2 µg/mL (≈ 12.9 µM)	–
NCC(=O)Nc1ccc(-n2nc(C(F)(F)F)cc2-c2ccc3oc4ccccc4c3c2)cc1 [Compound 25]	4 µg/mL (≈ 8.88 µM)	4 µg/mL (≈ 8.88 µM)	6.5 µg/mL (≈ 14.4 µM)	–
NCCC(=O)Nc1ccc(-n2nc(C(F)(F)F)cc2-c2ccc(-c3ccc(C(F)(F)F)cc3)cc2)cc1 [Compound 26]	4 µg/mL (≈ 7.72 µM)	4 µg/mL (≈ 7.72 µM)	4.2 µg/mL (≈ 8.1 µM)	–
NCCC(=O)Nc1ccc(-n2nc(C(F)(F)F)cc2-c2ccc3c(ccc4ccccc43)c2)cc1 [Compound 27]	4 µg/mL (≈ 8.43 µM)	4 µg/mL (≈ 8.43 µM)	6 µg/mL (≈ 12.6 µM)	–
NCCC(=O)Nc1ccc(-n2nc(C(F)(F)F)cc2-c2ccc3c(c2)Nc2ccccc2S3)cc1 [Compound 28]	4 µg/mL (≈ 8.07 µM)	4 µg/mL (≈ 8.07 µM)	7.5 µg/mL (≈ 15.1 µM)	–
NCCC(=O)Nc1ccc(-n2nc(C(F)(F)F)cc2-c2ccc3oc4ccccc4c3c2)cc1 [Compound 29]	4 µg/mL (≈ 8.61 µM)	4 µg/mL (≈ 8.61 µM)	7.2 µg/mL (≈ 15.5 µM)	–
NCCCC[C@@H](N)C(=O)Nc1ccc(-n2nc(C(F)(F)F)cc2-c2ccc3c(ccc4ccccc43)c2)cc1 [Compound 30]	4 µg/mL (≈ 7.52 µM)	4 µg/mL (≈ 7.52 µM)	3.2 µg/mL (≈ 6.02 µM)	–
NCCCC[C@@H](N)C(=O)Nc1ccc(-n2nc(C(F)(F)F)cc2-c2ccc3c(c2)Nc2ccccc2S3)cc1 [Compound 31]	4 µg/mL (≈ 7.24 µM)	4 µg/mL (≈ 7.24 µM)	17.5 µg/mL (≈ 31.7 µM)	–
NCCCC[C@@H](N)C(=O)Nc1ccc(-n2nc(C(F)(F)F)cc2-c2ccc3oc4ccccc4c3c2)cc1 [Compound 32]	did not exhibit appreciable activity at 64 μg/ml or improved activity relative to celecoxib	did not exhibit appreciable activity at 64 μg/ml or improved activity relative to celecoxib	–	–
NCCCC[C@H](N)C(=O)Nc1ccc(-n2nc(C(F)(F)F)cc2-c2ccc(-c3ccc(C(F)(F)F)cc3)cc2)cc1 [Compound 33]	4 µg/mL (≈ 6.95 µM)	4 µg/mL (≈ 6.95 µM)	3.3 µg/mL (≈ 5.73 µM)	–
NS(=O)(=O)Nc1ccc(-n2nc(C(F)(F)F)cc2-c2ccc(-c3ccccc3)cc2)cc1 [Compound 42, N-[4-(5-Biphenyl-4-yl-3-trifluoromethyl-pyrazol-1-yl)-phenyl]-aminosulfonamide]	–	–	–	MIC (S. aureus (ATCC 29213); [5]): 1 µg/mL (≈ 2.18 µM); MIC (MRSA (ATCC 33592); [6]): 1 µg/mL (≈ 2.18 µM); MIC (MRSA (SCCmec VT); [7]): 1 µg/mL (≈ 2.18 µM); MIC (S. aureus (ATCC 12598)): 1 µg/mL (≈ 2.18 µM); MIC (MRSA (ATCC 49476)): 1 µg/mL (≈ 2.18 µM); IC50 [2]: 16 µg/mL (≈ 34.9 µM)
Cc1ccc(-c2ccc(-c3cc(C(F)(F)F)nn3-c3ccc(NS(N)(=O)=O)cc3)cc2)cc1 [Compound 43, N-{4-[5-(4′-Methylbiphenyl-4-yl)-3-trifluoromethyl-pyrazol-1-yl]-phenyl}-aminosulfonamide]	–	–	–	MIC (S. aureus (ATCC 29213); [5]): 1 µg/mL (≈ 2.12 µM); MIC (MRSA (ATCC 33592); [6]): 1 µg/mL (≈ 2.12 µM); MIC (MRSA (SCCmec VT); [7]): 1 µg/mL (≈ 2.12 µM); MIC (S. aureus (ATCC 12598)): 1 µg/mL (≈ 2.12 µM); MIC [3]: 1 µg/mL (≈ 2.12 µM); MIC (MRSA (ATCC 49476)): 1 µg/mL (≈ 2.12 µM); IC50 [2]: 9 µg/mL (≈ 19 µM)
NS(=O)(=O)Nc1ccc(-n2nc(C(F)(F)F)cc2-c2ccc(-c3ccc(Br)cc3)cc2)cc1 [Compound 44, N-{4-[5-(4′-Bromobiphenyl-4-yl)-3-trifluoromethyl-pyrazol-1-yl]-phenyl}-aminosulfonamide]	–	–	–	MIC (S. aureus (ATCC 29213); [5]): 1 µg/mL (≈ 1.86 µM); MIC (MRSA (ATCC 33592); [6]): 1 µg/mL (≈ 1.86 µM); MIC (MRSA (SCCmec VT); [7]): 1 µg/mL (≈ 1.86 µM); MIC (S. aureus (ATCC 12598)): 1 µg/mL (≈ 1.86 µM); MIC [3]: 1 µg/mL (≈ 1.86 µM); MIC (MRSA (ATCC 49476)): 1 µg/mL (≈ 1.86 µM); IC50 [2]: 10 µg/mL (≈ 18.6 µM)
NS(=O)(=O)Nc1ccc(-n2nc(C(F)(F)F)cc2-c2ccc3ccccc3c2)cc1 [Compound 45, N-[4-(5-Naphthalen-2-yl-3-trifluoromethyl-pyrazol-1-yl)-phenyl]-aminosulfonamide]	–	–	–	MIC (S. aureus (ATCC 29213); [5]): 1 µg/mL (≈ 2.31 µM); IC50 [2]: 19 µg/mL (≈ 43.9 µM)
NC[C@H]1O[C@H](O[C@H]2[C@H](O)[C@@H](O[C@H]3O[C@H](CO)[C@@H](O)[C@H](N)[C@H]3O)[C@H](N)C[C@@H]2N)[C@H](O)[C@@H](O)[C@@H]1O [Kanamycia]	–	–	–	MIC (MRSA (SCCmec VT); [4]): > 64 µg/mL
CS(=O)(=O)c1ccc(C2=C(c3ccccc3)C(=O)OC2)cc1 [Rofecoxib, rofecoxib, reference compound]	–	–	–	MIC (S. aureus (ATCC 29213); Staphylococcus aureus, ATCC29213, Table IX, S. aureus (ATCC 29213), read-out: MIC): > 64 µg/mL; MIC (S. aureus (ATCC 29213); Table IX, S. aureus (ATCC 29213)): NE (no effect of the test agent at 64 μg/ml); MIC ([1]; Staphylococcus epidermidis, ATCC35984, Table IX, read-out: MIC): > 64 µg/mL; MIC ([1]; Table IX): NE (no effect of the test agent at 64 μg/ml); MIC (MRSA (ATCC 33592); Staphylococcus aureus, Table IX, MRSA (ATCC 33592), read-out: MIC): > 64 µg/mL; MIC (MRSA (ATCC 33592); Table IX, MRSA (ATCC 33592)): NE (no effect of the test agent at 64 μg/ml); MIC (MRSA (SCCmec VT); Staphylococcus aureus, MRSA, Table IX, MRSA (SCCmec VT), read-out: MIC): > 64 µg/mL; MIC (MRSA (SCCmec VT); Table IX, MRSA (SCCmec VT)): NE (no effect of the test agent at 64 μg/ml)
[H]/N=C(/N)N[C@H]1[C@H](O)[C@@H](O)[C@H](O[C@@H]2O[C@@H](C)[C@](O)(C=O)[C@H]2O[C@@H]2O[C@@H](CO)[C@H](O)[C@@H](O)[C@@H]2NC)[C@@H](N/C(N)=N\[H])[C@@H]1O [Streptomycin, streptomycin, reference compound]	–	–	–	MIC (MRSA (SCCmec VT); [4]): > 64 µg/mL
CN(C)[C@@H]1C(O)=C(C(N)=O)C(=O)[C@@]2(O)C(O)=C3C(=O)c4c(O)cccc4[C@@](C)(O)[C@H]3C[C@@H]12 [Tetracycline, tetracycline, reference compound]	–	–	–	MIC (MRSA (SCCmec VT); [4]): 16 µg/mL (≈ 36 µM)

Continued, in another order:

MIC S. aureus (ATCC 29213) (S. aureus (ATCC 29213); CAMHB, 24 h, 37° C.)	MIC S. epidermidis (ATCC 35984) [1]	IC50 HT-29 cells [2]	Compound	also measured
2 µg/mL (≈ 3.76 µM)	4 µg/mL (≈ 7.52 µM)	19.5 µg/mL (≈ 36.7 µM)	NCCCC[C@H](N)C(=O)Nc1ccc(-n2nc(C(F)(F)F)cc2-c2ccc3c(ccc4ccccc43)c2)cc1 [Compound 34]	–
4 µg/mL (≈ 7.24 µM)	4 µg/mL (≈ 7.24 µM)	5.2 µg/mL (≈ 9.41 µM)	NCCCC[C@H](N)C(=O)Nc1ccc(-n2nc(C(F)(F)F)cc2-c2ccc3c(c2)Nc2ccccc2S3)cc1 [Compound 35]	–
